# Data from patent EP0576227A2, “2'-Deoxy-2',2'-difluoro(2,6,8-substituted) purine nucleosides having anti-viral and anti-cancer activity and intermediates” (ELI LILLY AND COMPANY, priority 1992, dated 1993).
# Assays:
# [1] = system: HC1 human colon carcinoma; assay: HC1 human colon carcinoma xenograft in mice, tumor weight inhibition; format: in vivo, Nu/Nu CD-1 mice; conditions: 14 day delay
# Description: The HC1 human colon carcinoma xenograft was obtained in 1987 from Drs. Peter and Janet Houghton, St. Jude Children's Hospital, Memphis, TN. The tumor is a moderately well-differentiated adenocarcinoma of the ascending colon [British Journal of Cancer, 37, p 213-223 (1987)]. The first passage tumor was stored in liquid nitrogen using standard techniques. The tumors were maintained in serial passage Nu/Nu CD-1 mice (Charles River Laboratories, Portage, MI.).
# The study testing the efficacy of these compounds against HC1 human colon carcinoma was initiated by removing a tumor from passage animals and mincing it into 1 to 3 mm square fragments using sterile techniques. Tumor pieces were checked for sterility using both an Antibiotic Medium 1 and Brain Heart Infusion (Difco; Detroit, MI). Tumor pieces were implanted subcutaneously in the auxilary region of recipient mice by trocar. Drug therapy on the appropriate schedule was initiated 14 days after tumor implantation. Drugs were dissolved in Emulphor for all experiments. All animals were weighed at the beginning and end of drug treatment. Food and water were provided ad libitum. On day 14 after the initiation of therapy, two dimensional measurements (width and length) of all tumors were taken using electronic calipers interfaced to a computer. Tumor weights were calculated from these measurements using the following formula: Tumor Weight (mg) = Tumor Length (mm) X Tumor Width (mm)²/2
# For all data, the tumor weight was rounded to the nearest tenth of a gram for analysis. No group is included in the analysis for therapeutic activity in which deaths attributable to drug toxicity exceeded 20 percent of the treated group. Compounds are considered active if more than 60 percent inhibition of tumor growth, as determined by tumor weight, is achieved at maximally tolerated doses.
# In Table 2 which follows, Column 1 gives the example number of the compound tested; Column 2, the dose level; Column 3, the route administered; Column 4, the dosage schedule; Column 5, the percent inhibition of the tumor; and Column 6; the toxic deaths observed prior to completion of the study.
# [2] = system: human leukemia cells (CCRF-CEM cell line); assay: Growth inhibition of human leukemia cells (CCRF-CEM cytotoxicity screen); format: cell-based; conditions: Homo sapiens, CCRF-CEM
# Description: In another aspect, the invention provides a method of treating susceptible neoplasms in mammals comprising administering to a mammal in need of such treatment a pharmaceutically effective amount of a compound of formula (I). […] The treatment contemplated by the present method includes both medical therapeutic and prophylactic treatment, as appropriate. The specific dosage level of the compound administered according to this invention will, of course, be determined by the circumstances surrounding the case, including, for example, the particular compound administered, the route of administration, and the condition being treated. The compounds are effectively administered orally, topically, or parenterally. […] The representative compounds of formula (I) employed in the present invention are cytotoxic as they inhibit the growth of rapidly dividing human leukemia cells (CCRF-CEM cell line). Table 1 below gives the results of testing several compounds representative of formula (I).
# [3] = 05 mg/kg, Intra-Peritoneal 0.5 ml, 1,3,5,7 9
# [4] = 10 mg/kg, Intra-Peritoneal 0.5 ml, 1,3,5,7 9
# [5] = 20 mg/kg, Intra-Peritoneal 0.5 ml, 1,3,5,7 9
# [6] = 40 mg/kg, Intra-Peritoneal 0.5 ml, 1,3,5,7 9
# [7] = 80 mg/kg, Intra-Peritoneal 0.5 ml, 1,3,5,7,9
structure (smiles),measurement,setting,value
"CNc1nc(N)nc2c1ncn2[C@@H]1O[C@H](CO)[C@@H](O)C1(F)F [Example 5, 2-deoxy-2,2-difluoro-D-ribofuranosyl-1-β-(2-amino-6-methylaminopurine)]",Percent Inhibition of Tumor,[1]; [3],92%
same,Toxic Deaths,[1]; [3],0/8
same,Percent Inhibition of Tumor,[1]; [4],92%
same,Toxic Deaths,[1]; [4],0/8
same,Percent Inhibition of Tumor,[1]; [5],93%
same,Toxic Deaths,[1]; [5],0/8
same,Percent Inhibition of Tumor,[1]; [6],94%
same,Toxic Deaths,[1]; [6],1/8
same,Percent Inhibition of Tumor,[1]; [7],95%
same,Toxic Deaths,[1]; [7],0/8
same,IC50,[2],0.054 µg/mL
